This is an account of results in patent EP0359454B1, “CC-1065 analogs having two CPI subunits” (PHARMACIA & UPJOHN COMPANY, priority 1988, dated 1990).

The conditions of series [1]: in vitro and in vivo, depending upon the particular test system; cited from earlier work.
The subject of series [2] is L-1210 Leukemia. In words: L-1210 leukemia in vivo, IV drug vs IP tumor, dosed on day 1. The arrangement: species or system Male BDF1 mice. To be noted: for OD (optimum dose): i.v. dose on day 1. From the text: (§1) Table 3 presents data comparing [S-(R*,R*)]-6,6′-[carbonylbis(imino-1H-indole-5,2-dicarbonyl)]bis[8-chloromethyl)-3,6,7,8-tetrahydro-1-methyl-benzo[1,2-b:4,3-b′]dipyrrol-4-ol (Compound 1) with (7bR)-N-[2-[(4,5,8,8a-tetrahydro-7-methyl-4-oxocyclopropa-[C]pyrrolo[3,2-e]indol-2(1H)0yl)carbonyl]-1H-indol-5-yl]-2-benzofurancarboxamide (U-73,975) in the other murine systems where the compounds have been run jointly.
(§2) The results set forth in Tables 1 and 4 were obtained using standard well known procedures (In Vivo Cancer, Models, NIH Publication No. 84-2635, 1984).
(§3) T/C refers to median life span of treated mice divided by median life span of control mice times 100.

A short description of series [3]: Delayed death in animals without tumor. To be noted: NO TUMOR. It is filed as in vivo, murine.
Excerpt: as §1

In series [4] the test system is L-1210 sc. In words: L-1210 sc tumor, i.p. dose on day 1. The class given is in vivo, murine. The note with it: for OD (optimum dose) / cures: L-1210 sc; for OD (optimum dose): i.p. dose 1 on day 1; for cures: i.p. dose 1 on day 1, at optimum dose, survival 30 days = cured.
Excerpt: as §1, §2, §3

Series [5] concerns L-1210 i.p. The experiment in a line: L-1210 i.p. tumor, i.p. dose on days 1,5,9. It is filed as in vivo, murine. To be noted: for OD (optimum dose): i.p. dose on days 1,5,9; for cures: i.p. dose on days 1,5,9, at optimum dose, survival 30 days = cured.
Excerpt: as §1, §2, §3

The test system of series [6] is Lewis Lung i.v. In words: Lewis Lung i.v. tumor, i.v. dose on days 1,5,9. The class given is in vivo, murine. To be noted: for OD (optimum dose): i.v. dose on days 1,5,9; for T/C: i.v. dose on days 1,5,9, at optimum dose.
Excerpt: as §1, §3

Series [7] has as its system L1210 leukemia cells. The experiment in a line: In vitro L1210 cell growth inhibition. It is filed as cell-based, murine. The note with it: Mus musculus, concentration of drug which inhibits cell growth 50%, read-out: ID50 (the source's name).
Excerpt: as §1

For series [8], the system named is B-16 i.p. The experiment in a line: B-16 i.p. tumor, i.v. dose on day 1. It is filed as in vivo, murine. The note with it: for OD (optimum dose): i.v. dose on day 1; for T/C: i.v. dose on day 1, at optimum dose.
Excerpt: The compounds of Formula I are particularly useful as antitumor agents. […] These murine test systems are predictive for clinically useful human antitumor agents (see, for examle, A. Geldin et al, European J. Cancer, Vol. 17, pp 129-142, 1981; J.M. Vendetti, Cancer Treatment Reports, Vol. 67, pp. 767-772, 1983; and J.M. Vendetti et al, Advances in Pharmacology and Chemotherapy, Vol. 20, pp. 1-20, 1984), and, therefore, the compounds of the subject invention (Formula I) will be useful in the control and treatment of susceptible neoplastic (cancer) diseases, including susceptible leukemics, in humans when given, for example, intravenously in doses of 0.001 µg/kg to about 10 mg/kg of body weight per day, the exact dose depending on the age, weight, and condition of the patient, and on the frequency of administration.
as §1, §3

≈ marks a conversion by molar mass, not a printed value.

`COc1c(O)c2c(c3cc(C(=O)N4CCc5c4c(O)c(OC)c4[nH]c(C(=O)N6CC(COC(C)=O)c7c6cc(O)c6[nH]cc(C)c76)cc54)[nH]c13)CCN2C(N)=O` (stereo not drawn) [AAP, 7-[[7-[[1-[(acetyloxy)methyl]-1,6-dihydro-5-hydroxy-8-methylbenzo[1,2-b:4,3-b′]dipyrrol-3(2H)-yl]carbonyl]-1,6-dihydro-4-hydroxy-5-methoxybenzo[1,2:4,3-b′]-dipyrrol-3(2H)-yl]carbonyl]-1,6-dihydro-4-hydroxy-5-methoxy-benzo[1,2-b:4,3-b′]dipyrrole-3(2H)-carboxamide]: the “factor by which less potent than CC-1065” value in series [1] was 10^3 to 10^4.
As to `Cc1c[nH]c2c(O)cc3c(c12)[C@H](CCl)CN3C(=O)c1cc2cc(NC(=O)Nc3ccc4[nH]c(C(=O)N5C[C@@H](CCl)c6c5cc(O)c5[nH]cc(C)c65)cc4c3)ccc2[nH]1` [Compound 1, [S-(R*,R*)]-6,6′-[carbonylbis(imino-1H-indole-5,2-dicarbonyl)]bis[8-chloromethyl)-3,6,7,8-tetrahydro-1-methylbenzo[1,2-b:4,3-b′]dipyrrol-4-ol], the cures in series [2] (IV drug vs IP tumor, dosed on day 1, animals surviving 30 days are considered cured, at the dose (µg/kg)) is recorded as 4/6 cures; in series [2] (L-1210 i.p., i.v. dose on day 1, at optimum dose, animals which survive 30 days are considered cured), “(4/6)”; in series [4], “(6/6)”; in series [5], “(3/6)”. The “OD (optimum dose)” value in series [2] (L-1210 i.p.) is 0.01 to 0.015 mg/kg; in series [4], 0.01 to 0.025 mg/kg; in series [5] it was 0.004 mg/kg; in series [6], 0.004 mg/kg; in series [8], 0.015 mg/kg. The “In vivo L1210 activity (in words)” value in series [2] (at 15 µg/kg) is listed as “highly curative”. The Delayed death result in series [3] is reported as “not to cause delayed death”; in series [3] (listed as Cpd 1), “No Delayed Death”. In series [4] (subcutaneous L1210 assay, over several dose ranges), the “Activity compared with U-73,975 (in words)” value is reported as “superior activity”. The T/C in series [6] turned out to be 168; in series [8] it was 167. Also, in series [7], the IC50 worked out at 0.001 ng/mL (≈ 0.00123 nM).
Take `Cc1c[nH]c2c1[C@@]13C[C@@H]1CN(C(=O)c1cc4cc(NC(=O)c5cc6ccccc6o5)ccc4[nH]1)C3=CC2=O` [U-73,975, (7bR)-N-[2-[(4,5,8,8a-tetrahydro-7-methyl-4-oxocyclopropa-[C]pyrrolo[3,2-e]indol-2(1H)0yl)carbonyl]-1H-indol-5-yl]-2-benzofurancarboxamide, reference compound]: the “Best T/C” value is listed as 213 in series [2] (IV drug vs IP tumor, dosed on day 1, T/C = median survival treated/control x 100, each value at the dose (1-600 µg/kg)) and 213 in series [2] (L-1210 i.p., i.v. dose on day 1, at optimum dose). The “OD (optimum dose)” value in series [2] (L-1210 i.p.) amounted to 0.1 mg/kg; in series [4], 0.1 mg/kg; in series [5] it was 0.02 mg/kg; in series [6], 0.025 mg/kg; in series [8], 0.1 mg/kg. The Delayed death entry in series [3] is “not to cause delayed death”; in series [3] (listed as U-73-975), “No Delayed Death”. Moreover, the cures entry in series [4] and in series [5] was “(4/6)” in each case. Also, the T/C in series [6] worked out at 147; in series [8], 160.
